In one data set the test system is HCT-116. Put plainly: MTT anti-proliferative assay, HCT-116. The data set is classed as cell-based. Particulars: Homo sapiens, 48 h treatment, MTT, mean ± SD of at least three experiments, read-out: IC50 (M)/ 48 h HCT-116. The method, then:
(§1) These compounds, along with all newly synthesized compounds, were screened for anti-proliferative activity against the same TNBC and colon cancer cell lines.
(§2) Cell viability was evaluated by measuring the reduction in MTT to yield blue formazan. Cells were cultured in 96-well plates, allowed to attach overnight, and then treated with compounds. After treatment, MTT solution (1 mg/mL) was added to each well, and plates were incubated for another 2 h. Medium was removed, blue formazan was dissolved in DMSO, and the absorbance was read at 570 nm by Multiskan Go spectrophotometer (Thermo Scientific, Madison, WI, USA).
For orientation: Tetrazolium dyes change colour on reduction, which living cells bring about.

A short description of data set [1]: Preliminary pharmacokinetic evaluation of 2 in rat (LC-MS of serum). The data set is classed as in vivo, Sprague-Dawley rats. To be noted: for time of maximum blood content: LC signal in serum. The protocol:
Male Sparague-Dawley rat (420 g) from National Laboratory Animal Center, Taipei, Taiwan were maintained under the regulations of the Institutional Animal Care and Use Committee of the National Health Research Institutes, Taiwan. The animal studies were supervised under the Institutional Animal Care and Use Committee, China Medical University, Taichung, Taiwan with a protocol number ([…]-2018-278). Rat was fasted for 16 h before dosing. Compound 2 was dissolved in aqueous solution (5% ethanol and 10% Tween80 in 85% saline) and administrated via oral gavage at a dosage of 100 mg/kg. Blood samples were collected at selected time points (5, 10, 20, 30, 60, 120, 240, 360, 480 min) post dose and centrifuged at 10,000× g for 15 min to provide serum samples, which were stored at −80 °C until subsequent sample extraction.
Methods for the preparation of 2, 2m, 18, 19, 20 and 21 serum sample are delineated as follows. 50 μL of acetate buffer (pH 5.0), 50 μL of ascorbic acid (200 mg/mL), and 50 μL of 0.1 N HCl solution was added into 100 μL of serum which was collected at different time points). The resulting mixture was partitioned with 250 μL of ethyl acetate (containing 5.0 μg/mL of butyl paraben as the internal standard). After centrifuging at 10,000× g for 15 min, the upper organic layer was separated and dried under nitrogen gas to provide the crude sample, which was diluted with an appropriate volume of acetonitrile for LC-MS analysis.
The amount of 22 and 23 were analyzed by the serum samples before and after treatment with enzyme solution. The procedure for enzyme treatment is shown as follows. 100 μL of serum was treated with enzyme solution (50 μL; containing 1000 units/mL of sulfatase and 39861 units/mL of β-glucuronidase in pH 5.0 acetate buffer), 50 μL of 0.1 N HCl solution and 50 μL of ascorbic acid (200 mg/mL) in the light protected tubes at 37 °C. For optimal hydrolysis efficiency, the incubation time was decided as 2 h based on a previous study. The mixture was then partitioned with 250 μL of ethyl acetate (containing 5.0 μg/mL of butyl paraben as the internal standard). After centrifuging at 10,000× g for 15 min, the upper organic layer was separated and dried under nitrogen gas to provide the crude sample, which was diluted with an appropriate volume of acetonitrile for LC analysis.
All samples obtained from in vivo pharmacokinetic studies were assayed using LC-MS for the analysis of 2 and the corresponding metabolites. The Waters ACQUITY UPLC I-Class system (Waters Corp., Milford, MA, USA) was utilized. System control and all of the mass spectrometry data were acquired and analyzed using UNIFI software (Waters Corp.). For sample separation, the LC was equipped with an Inertsil ph-3 (50 × 2.1 mm, 2 μm particle size) RPLC column (GL Sciences Inc. Tokyo, Japan) in which the column temperature was held at 35 °C, injection volume was 7.5 μL, and the flow rate of the mobile phase was 200 μL/min. The elution started from 50% mobile phase A (ultrapure water + 0.1% formic acid) and 50% mobile phase B (100% methanol + 0.1% formic acid), held at 50% B for 0.5 min, raised to 95% B in 5.5 min, held at 95% B for 1 min, and then lowered to 50% B in 1 min. Before sample injection, the column was equilibrated by pumping 50% B for 4 min. The analysis of target compounds for all samples was performed by using a Waters Vion IMS QTof mass spectrometer. Data were acquired in the electrospray ionization (ESI) positive ion MS^E mode with range of m/z 100–1000 and 0.5 s scan time. Parameters were set as capillary voltage of 2.5 kV, source temperature of 100 °C, desolvation temperature at 250 °C, cone gas maintained at 10 L/h, desolvation gas maintained at 600 L/h. The acquired m/z and isotope pattern were processed by UNIFI software to illustrate chromatogram, and the amounts of compound was calculated with the integrated peak area of signals.

For data set [2], the system named is MDA-MB-231. Put plainly: MTT anti-proliferative assay, MDA-MB-231. The data set is classed as cell-based. To be noted: Homo sapiens, 48 h treatment, MTT, mean ± SD of at least three experiments, read-out: IC50 (M)/ 48 h MDA-MB-231. The method, then: as §1, §2
Data set [3] concerns MDA-MB-231. To be noted: MDA-MB-231 in vitro and in vivo; cited from earlier work.
Data set [4] in a line: Solubility in aqueous dosing vehicle. The class given is physicochemical. Particulars: aqueous with cosolvent or surfactant or cyclodextrin, 5% ethanol, 10% Tween 80, 85% saline, read-out: maximum solubility in aqueous vehicle. The text has this:
Subsequently, the latter would be converted into glucuronide 22 and sulfate 23 through the phase II metabolism conjugation of hydrogenated products 18, 19, 20, and 21 via the phase I metabolic pathway (Scheme 6). To verify our assumptions, the preliminary pharmacokinetic evaluation of 2 was executed.

Data set [5] concerns HCT-116 colon tumor xenograft. The experiment in a line: In vivo antitumor activity, HCT-116 colon tumor xenograft bearing nude mice. Further details: species or system nu/nu mice. To be noted: 30 days. The method, then:
(§3) The therapeutic effect of 2 was evaluated on HCT-116 colon tumor xenograft bearing nude mice. The oral administration of 2 at doses of 50, 100, or 150 mg/kg bw per day were performed after tumors reached approximately 100 mm^3 and continued for 30 consecutive days. 5-Fluorouracil treatment (30 mg/kg bw, i.p., QOD) was used as a positive control. […] There was a clear dose- and time-dependent inhibitory effect on tumor size in the other two groups, in which at 50 and 150 mg/kg doses the volume of the HCT-116 colon tumor was reduced to 73% and 40% of the control, respectively (Figure 2). The body weight of the mice was recorded prior to dosing every 3 d, and the average body weight of each group is depicted in Figure 3. Otherwise, they were monitored for visible signs of toxicity and behavioral changes 1 h after each administration.
Male nu/nu mice (5 weeks old) from National Laboratory Animal Center (Taipei, Taiwan) were maintained under the procedures and guidelines provided by the Institutional Animal Care and Use Committee of the National Health Research Institutes (Taipei, Taiwan). All experiments were supervised under the Institutional Animal Care and Use Committee, China Medical University, Taichung, Taiwan with a protocol number ([…]-2018-278). HCT-116 colon cancer cells (5 × 10^6 cells per mouse) were suspended in 0.1 mL of Matrigel solution (50% v/v Matrigel in PBS) and inoculated into the mammary fat pads of the mice. When the tumor size reached 100 mm^3, the tumor-bearing mice were randomly divided into four groups for treating with vehicle (5% ethanol and 10% tween 80 in 85% saline, 0.1 mL) and 2 (p.o. 50, 100 and 150 mg/kg/day body weight) respectively. Compounds was administered via oral route daily for 30 days. 5-Fluorouracil-treated group (i.p. 30 mg/kg) is the positive control. Tumor size and mouse body weight were measured once every 3 days, and tumor volume (mm^3) was calculated using the equation: length × (width)^2 × 0.5. At the end of experiments, mice were sacrificed.

Data set [6] is described as follows: Visible signs of toxicity and behavioral changes in xenograft mice. The data set is classed as in vivo. To be noted: 50, 100, 150 mg/kg p.o. daily, 30 days, vs control groups. The method, then:
as §3
Male nu/nu mice (5 weeks old) from National Laboratory Animal Center (Taipei, Taiwan) were maintained under the procedures and guidelines provided by the Institutional Animal Care and Use Committee of the National Health Research Institutes (Taipei, Taiwan). […] Tumor size and mouse body weight were measured once every 3 days, and tumor volume (mm^3) was calculated using the equation: length × (width)^2 × 0.5. […]

Data set [7] is described as follows: Chemical stability on storage. Particulars: storage at 4 °C; DMSO-d6 1 week at room temperature. The data set is classed as physicochemical. The text has this:
The low stability of 9 may have been due to self- or cross-hydrolysis, such that the two hydroxyl groups at the C-4 alkyl chains cleaved the ester linkage of the 2,2-bis(hydroxymethyl)propionate group. […] Therefore, we modified the hydroxymethyl group of 9 and were able to produce compounds 10 and 11. To prepare 10, compound 9 was acetylated with acetyl chloride in the presence of Et3N, and the resulting di-acetylation intermediate was hydrolyzed by hydrochloric acid. Compound 11 was obtained with an overall yield of 5% following a similar three-step reaction modified for methylation. The stability of these two products at room temperature may have been due to the conversion of the labile hydroxyl groups of the C-4 alkyl chains of 10 and 11 into non-nucleophilic […] groups, respectively, which prevented degradation.

Values after ≈ are worked out from the molar mass of the structure shown.

Data on 4 compounds can be found in paper PMC7037731, “Synthesis, Anticancer Activity, and Preliminary Pharmacokinetic Evaluation of 4,4-Disubstituted Curcuminoid 2,2-bis(Hydroxymethyl)Propionate Derivatives” (Molecules, 2020).

As usually defined, the melting point is the temperature, or range, at which the solid turns liquid. Broadly, the solubility is how much of the substance goes into solution per volume.

Compound `COc1cc(/C=C/C(=O)C(C)(C)C(=O)/C=C/c2ccc(O)c(OC)c2)ccc1O` [Compound 2m, (1E,6E)-1,7-bis(4-Hydroxy-3-methoxyphenyl)-4,4-dimethylhepta-1,6-diene-3,5-dione] gave a melting point of 104 to 106 °C. The IC50 in the data set on HCT-116 was found to be 2.17e-06 ± 1.6e-07 M. Also, in data set [1] (after oral 2 at 100 mg/kg), the “time from which the metabolite emerged in blood” value stood at 10 min and the “time of maximum blood content” value amounted to 120 min. Further, in the data set on MDA-MB-231 [2], the IC50 turned out to be 4.17e-06 ± 1.5e-07 M.

For the compound `COc1cc(/C=C/C(=O)/C=C(O)/C=C/c2ccc(OC(=O)C(C)(CO)CO)c(OC)c2)ccc1OC(=O)C(C)(CO)CO` [Compound 1, curcumin di-O-2,2-bis(hydroxymethyl)propionate], the figures for the IC50 in the data set on HCT-116 and in the data set with MDA-MB-231 [2] were 6.25e-06 ± 6e-07 M and 3.06e-06 ± 1.8e-07 M, respectively. Besides, the “potency relative to curcumin (times)” value in the data set on MDA-MB-231 [3] was 8 to 10.

For the compound `COc1cc(/C=C/C(=O)C(C)(C)C(=O)/C=C/c2ccc(OC(=O)C(C)(CO)CO)c(OC)c2)ccc1OC(=O)C(C)(CO)CO` [Compound 2], the IC50 stood at 3.1e-06 ± 2.9e-07 M with HCT-116 and 2.25e-06 ± 1e-07 M in the data set with MDA-MB-231 [2]. Besides, the solubility in data set [4] is roughly 200 mg/mL (≈ 318 mM). Moreover, the “time of second highest blood content” value in [1] (after oral 2 at 100 mg/kg) stood at 120 min. In addition, in [1] (after oral 2 at 100 mg/kg), the “time of third highest blood content” value is on record as 360 min. The “time of maximum blood content” value in data set [1] (after oral 2 at 100 mg/kg) came out at 20 min. Also, the “plasma stability compared to curcumin” value in [1] (oral 100 mg/kg) is reported as “superior plasma stability”. In addition, the “tumor volume as % of the control” value in data set [5] (50 mg/kg p.o. daily) was found to be 73%; in [5] (150 mg/kg p.o. daily), 40%. Further, the tumor volume reduction in [5] (50 mg/kg p.o. daily, vs control) is listed as 27%; in [5] (150 mg/kg p.o. daily, vs control) it was 60%. The “tumor volume reduction / tumor inhibition ratio” value in [5] (100 mg/kg p.o. daily, vs control) came out at 45%. Further, the “adverse effects (visible signs of toxicity, behavioral changes)” value in data set [6] was “No obvious adverse effects”.

As to `COc1cc(/C=C/C(=O)C(CO)(CO)C(=O)/C=C/c2ccc(OC(=O)C(C)(CO)CO)c(OC)c2)ccc1OC(=O)C(C)(CO)CO` [Compound 9, [(1E,6E)-4,4-bis(Hydroxymethyl)-3,5-dioxohepta-1,6-diene-1,7-diyl]bis(2-methoxy-4,1-phenylene) bis[3-hydroxy-2-(hydroxymethyl)-2-methylpropanoate]], the IC50 with HCT-116 and in the data set on MDA-MB-231 [2] was greater than 0.0001 M in each case. In data set [7], the “chemical stability” value was “unstable”.
